Assay results as given in article PMC7406636, “In vivo and in silico characterization of apocynin in reducing organ oxidative stress: A pharmacokinetic and pharmacodynamic study” (Pharmacology Research & Perspectives, 2020).
Where two headings read alike, the source gives them in different places.

Tests used:
[1] = parameters: method as in PMID 25140304; details: rats, intraperitoneal injection, urine collected at 20 hours; cited from earlier work
[2] = Apocynin in organs after 16 weeks in drinking water, HFD mouse model (HPLC-MS/MS); type: in vivo; details: male, oral, C57BL/6J mice, HFD 16 weeks, apocynin 5 mmol/L in drinking water
Text: The mouse model of high‐fat diet (HFD‐induced metabolic disorders and accelerated aging was established as described previously. ^8 Littermates of WT and Nox2KO mice (Jackson Laboratory) on a C57BL/6J background at 7 months of age were randomly assigned (n = 6/per group) to a HFD containing 45% kcal fat (Special Diets Services), or to a normal chow diet (NCD) containing 9.3% kcal fat (LabDiet Ltd) for 16 weeks. Apocynin was supplied in drinking water (5 mmol/L) for the treatment group. Body weights were measured weekly. Mice were sacrificed at 11 months of age and organs were harvested for further experiments.
The detection of apocynin in tissue sample was performed as described previously with some modifications. ^17 In brief, apocynin was detected using an Accela HPLC coupled to a linear ion‐trap tandem mass spectrometry (LTQ‐Orbitrap XL; Thermo‐Fisher Scientific) (HPLC‐MS/MS) in the negative ion mode. Phenacetin (500 ng/mL) was used as an internal standard in every vial. A reversed‐phase 50 × 2.1 mm ID, […], 175 Å pore C18 Hypersil Gold column (Thermo Scientific) was used with injection volume set at 5 µL for the separation of apocynin and phenacetin. Calibration curve used for PK analysis was constructed by spiking apocynin in mouse plasma using eight calibrators ranging from 1 to 10000 ng/mL with great reproducibility and R ^2 ≥ 0.996 for subsequent 5 separate experiments on different days. […] Limit of detection for apocynin was set up at signal to noise ratio ≥ 3, ^18 which is 1 ng/mL in our system. The limitation of quantification was set up at signal to noise ratio ≥ 10, which is 10 ng/mL in our system. Orbitrap component was used for the full scan spectra of apocynin and diapocynin.
The HFD study was performed exactly as described previously. ^8 Littermates of WT and Nox2KO mice on a C57BL/6J background (Jackson Laboratory, USA) were bred in our institution from heterozygotes and genotyped. […] Body weights were measured weekly. […] The body weights were recorded and organs were harvested.

[3] = system: O2·‐ production in tissue homogenates; assay: O2·- production in organ homogenates by lucigenin-chemiluminescence, HFD mouse model; type: in vivo; details: HFD 16 weeks, apocynin 5 mmol/L in drinking water, vs HFD
Procedure: Apocynin was supplied in drinking water (5 mmol/L) for the treatment group. Body weights were measured weekly. Mice were sacrificed at 11 months of age and organs were harvested for further experiments. ROS production was measured using tissue homogenates by three complementary techniques: lucigenin (5 µmol/L)‐chemiluminescence (Molecular Devices); DHE (2 µmol/L) fluorescence on brain tissue sections, and brain tissue lipid peroxidation by malondialdehyde (MDA) assay as described previously. ^5 The specificity of detection of O2·‐ was confirmed by adding tiron (10 mmol/L), a non‐enzymatic O2·‐ scavenger. The enzymatic sources of O2·‐ production were identified using inhibitors targeting nitric oxide synthase (L‐N^G‐Nitro arginine methyl ester, L‐NAME, 100 μmol/L), the mitochondrial complex‐1 enzymes (rotenone, 50 μmol/L), xanthine oxidase (oxypurinol, 250 μmol/L), flavo‐proteins (diphenyleneiodonium, DPI, 20 μmol/L), or superoxide dismutase (SOD) (200 U/mL). The DHE fluorescence was captured using a Nikon fluorescence microscope (Eclipse Ti2‐E). The fluorescence intensity was quantified from at least three random images per section with three sections/per sample. […] Body weights were measured weekly. […] The body weights were recorded and organs were harvested.

[4] = system: ROS production on brain sections; assay: In situ ROS production by DHE fluorescence on brain sections after iv injection; type: in vivo, mouse; details: brain sections harvested at 15 minutes after iv injection
Procedure: ROS production was measured using tissue homogenates by three complementary techniques: lucigenin (5 µmol/L)‐chemiluminescence (Molecular Devices); DHE (2 µmol/L) fluorescence on brain tissue sections, and brain tissue lipid peroxidation by malondialdehyde (MDA) assay as described previously. ^5 The specificity of detection of O2·‐ was confirmed by adding tiron (10 mmol/L), a non‐enzymatic O2·‐ scavenger. The enzymatic sources of O2·‐ production were identified using inhibitors targeting nitric oxide synthase (L‐N^G‐Nitro arginine methyl ester, L‐NAME, 100 μmol/L), the mitochondrial complex‐1 enzymes (rotenone, 50 μmol/L), xanthine oxidase (oxypurinol, 250 μmol/L), flavo‐proteins (diphenyleneiodonium, DPI, 20 μmol/L), or superoxide dismutase (SOD) (200 U/mL). The DHE fluorescence was captured using a Nikon fluorescence microscope (Eclipse Ti2‐E). The fluorescence intensity was quantified from at least three random images per section with three sections/per sample.

[5] = PK simulation and model analysis using Phoenix WinNonlin 8.1 (non-compartmental and compartmental); type: in vivo; details: CD1, mouse, plasma; for AUC / clearance / Vd: iv, 5 mg/kg
Procedure: PK parameters simulation was performed using the Phoenix WinNonlin 8.1 software (Certara.com). […] Data collected from sampling time 1‐360 minutes after iv injection were then pooled (n = 3) and tested against various compartmental models for a best fit using Phoenix WinNonlin 8.1 software. Parameters included the Akaike's information criterion (AIC), Bayesian information criteria (BIC) and corrected AIC (AICc) calculated using the equation: AICc = AIC +2 × nParm (nParm + 1)/(nObs − nParm − 1). ^21

COc1cc(C(C)=O)ccc1O [Apocynin, 4‐hydroxy‐3‐methoxyacetophenone]
apocynin recovered in unchanged form in urine [1]: 80% | concentration at 16 weeks ([2]; brain, read-out: brain apocynin concentration at end of treatment): 5370 ± 1610 ng/g | concentration at 16 weeks ([2]; heart, read-out: heart apocynin concentration at end of treatment): 1800 ± 1490 ng/g | concentration at 16 weeks ([2]; liver, read-out: liver apocynin concentration at end of treatment): 4820 ± 1340 ng/g | effect on HFD-induced ROS production / oxidative stress in brain, liver and heart [3]: significant reductions | effect on HFD-induced ROS production / oxidative stress in brain, liver and heart ([3]; listed as apocynin): reduced significantly | effect on DHE fluorescence (in situ ROS production) [4]: inhibited effectively | k el ([5]; NCA, iv 5 mg/kg, n = 3, read-out: Kel (elimination rate constant) (converted)): 0.00379 s⁻¹ | half-life ([5]; NCA, iv 5 mg/kg, n = 3, read-out: t 1/2 (terminal half-life, plasma) (converted)): 3 min | AUC ([5]; male, 1-CA (one compartmental analysis), 0-6 h, read-out: AUC0‐∞): 681 ng·h/mL | clearance ([5]; male, 1-CA, 0-6 h, read-out: tvCL1 (typical value of compartmental clearance) (converted)): 92.4 mL/min | Vd ([5]; male, 1-CA, 0-6 h, read-out: tvV1 (typical value of compartmental volume of distribution)): 0.531 L | AUC ([5]; male, 2-CA (two compartmental analysis), 0-6 h, read-out: AUC0‐∞): 711 ng·h/mL | clearance ([5]; male, 2-CA, 0-6 h, read-out: tvCL1 (typical value of compartmental clearance) (converted)): 92.3 mL/min | Vd ([5]; male, 2-CA, 0-6 h, read-out: tvV1 (typical value of compartmental volume of distribution)): 0.531 L | AUC ([5]; male, 3-CA (three compartmental analysis), 0-6 h, read-out: AUC0‐∞): 711 ng·h/mL | clearance ([5]; male, 3-CA, 0-6 h, read-out: tvCL1 (typical value of compartmental clearance) (converted)): 92 mL/min | Vd ([5]; male, 3-CA, 0-6 h, read-out: tvV1 (typical value of compartmental volume of distribution)): 0.531 L | AUC ([5]; male, NCA, iv 5 mg/kg, n = 3, read-out: AUC0‐30min): 643 ng·h/mL | AUC ([5]; male, NCA, iv 5 mg/kg, n = 3, read-out: AUC0‐∞): 644 ng·h/mL | clearance ([5]; male, NCA, iv 5 mg/kg, n = 3, read-out: CL (clearance) (converted)): 129 mL/min/kg | Vd ([5]; male, NCA, iv 5 mg/kg, n = 3, read-out: V d (central volume of distribution)): 0.569 L/kg | clearance ([5]; male, NCA, iv 5 mg/kg, read-out: CL (systemic clearance) (converted)): 129 mL/min/kg | C0 ([5]; male, NCA, 0-30 min, iv 5 mg/kg, n = 3, read-out: C 0 (extrapolated plasma concentration at time 0)): 7360 ng/mL | Cmax ([5]; male, NCA, 0-30 min, iv 5 mg/kg, n = 3, read-out: C max (maximum plasma concentration)): 5490 ng/mL
